Test results as given in patent US10421761B2, “Compounds for kinase modulation, and indications therefor” (Plexxikon Inc., priority 2013, dated 2019).

Test system: B9 cells
Settings: Repl. 2; B9 cells

## CCCS(=O)(=O)Nc1ccc(F)c(C(=O)c2c[nH]c3ncc(-c4ccc(Cl)cc4)cc23)c1F [vemurafenib]
  probe 1420955_at response, Vsnl1 (visinin-like 1): 0.47
  probe 1421134_at response, Areg (amphiregulin): 4.16
  probe 1421269_at response, Ugcg (UDP-glucose ceramide glucosyltransferase): 2.16
  probe 1421279_at response, Lamc2 (laminin, gamma 2): 2.11
  probe 1421403_at response, Pi15 (peptidase inhibitor 15): 1.96
  probe 1421551_s_at response, Ifi202b (interferon activated gene 202B): 3.42
  probe 1421668_x_at response, Speer3 (spermatogenesis associated glutamate (E)-rich protein 3): 2.60
  probe 1421679_a_at response, Cdkn1a (cyclin-dependent kinase inhibitor 1A (P21)): 4.13
  probe 1421888_x_at response, Aplp2 (amyloid beta (A4) precursor-like protein 2): 0.63
  probe 1421943_at response, Tgfa (transforming growth factor alpha): 1.92
  probe 1422028_a_at response, Ets1 (E26 avian leukemia oncogene 1, 5′ domain): 1.91
  probe 1422101_at response, Tnfrsf23 (tumor necrosis factor receptor superfamily, member 23): 1.93
  probe 1422138_at response, Plau (plasminogen activator, urokinase): 2.19
  probe 1422139_at response, Plau (plasminogen activator, urokinase): 2.82
  probe 1422222_at response, Ivl (involucrin): 2.27
  probe 1422240_s_at response, Sprr2h (small proline-rich protein 2H): 1.98
  probe 1422273_at response, Mmp1b (matrix metallopeptidase 1b (interstitial collagenase)): 3.17
  probe 1422324_a_at response, Pthlh (parathyroid hormone-like peptide): 2.28
  probe 1422537_a_at response, Id2 (inhibitor of DNA binding 2): 0.49
  probe 1422771_at response, Smad6 (MAD homolog 6 (Drosophila)): 0.47
  probe 1422924_at response, Tnfsf9 (tumor necrosis factor (ligand) superfamily, member 9): 1.94
  probe 1423017_a_at response, Il1rn (interleukin 1 receptor antagonist): 2.03
  probe 1423543_at response, Swap70 (SWA-70 protein): 1.95
  probe 1423597_at response, Atp8a1 (ATPase, aminophospholipid transporter (APLT), class I, type 8A, member 1): 1.88
  probe 1423635_at response, Bmp2 (bone morphogenetic protein 2): 2.23
  probe 1423690_s_at response, Gpsm1 (G-protein signalling modulator 1 (AGS3-like, C. elegans)): 3.20
  probe 1423933_a_at response, 1600029D21Rik (RIKEN cDNA 1600029D21 gene): 2.01
  probe 1424022_at response, Osgin1 (oxidative stress induced growth inhibitor 1): 1.92
  probe 1424090_at response, Sdcbp2 (syndecan binding protein (syntenin) 2): 4.46
  probe 1424306_at response, Elovl4 (elongation of very long chain fatty acids (FEN1/Elo2, SUR4/Elo3, yeast)-like 4): 2.35
  probe 1424383_at response, Tmem51 (transmembrane protein 51): 2.69
  probe 1424471_at response, Rapgef3 (Rap guanine nucleotide exchange factor (GEF) 3): 1.89
  probe 1424638_at response, Cdkn1a (cyclin-dependent kinase inhibitor 1A (P21)): 2.67
  probe 1424783_a_at response, Ugt1a1 /// Ugt1a10 /// Ugt1a2 /// Ugt1a5 /// Ugt1a6a /// Ugt1a6b /// Ugt1aTc /// Ugt1a9 (UDP glucuronosyltransferase 1 family): 0.43
  probe 1425452_s_at response, Fam84a (family with sequence similarity 84, member A): 2.53
  probe 1425660_at response, Btbd3 (BTB (POZ) domain containing 3): 1.92
  probe 1426037_a_at response, Rgs16 (regulator of G-protein signaling 16): 2.93
  probe 1426181_a_at response, I124 (interleukin 24): 4.76
  probe 1426260_a_at response, Ugt1a1 /// Ugt1a10 /// Ugt1a2 /// Ugt1a5 /// Ugt1a6a /// Ugt1a6b /// Ugt1aTc /// Ugt1a9 (UDP glucuronosyltransferase 1 family): 0.45
  probe 1426300_at response, Alcam (activated leukocyte cell adhesion molecule): 2.44
  probe 1426306_a_at response, LOC100046560 /// Maged2 (similar to melanoma antigen family D, 2 /// melanoma antigen, family D, 2): 1.87
  probe 1426708_at response, Antxr2 (anthrax toxin receptor 2): 2.15
  probe 1426806_at response, Obfc2a (oligonucleotide/oligosaccharide-binding fold containing 2A): 2.02
  probe 1426848_at response, LOC100047481 /// Sec24b (similar to SEC24 related gene family, member B (S. cerevisiae) /// Sec24 related gene family, member B (S. cerevisiae)): 0.75
  probe 1426972_at response, Sec24d (Sec24 related gene family, member D (S. cerevisiae)): 2.26
  probe 1427278_at response, Clip4 (CAP-GLY domain containing linker protein family, member 4): 2.03
  probe 1427364_a_at response, Odc1 (ornithine decarboxylase, structural 1): 2.62
  probe 1427512_a_at response, Lama3 (laminin, alpha 3): 2.47
  probe 1427527_a_at response, Pthlh (parathyroid hormone-like peptide): 2.37
  probe 1427885_at response, Pold4 (polymerase (DNA-directed), delta 4): 2.27
  probe 1428114_at response, Slc14a1 (solute carrier family 14 (urea transporter), member 1): 2.47
  probe 1428195_at response, Ahcyl2 (S-adenosylhomocysteine hydrolase-like 2): 2.06
  probe 1428228_at response, Pgm3 (phosphoglucomutase 3): 2.13
  probe 1428419_at response, 5430411K18Rik (RIKEN cDNA 5430411K18 gene): 2.28
  probe 1428851_at response, 1300014I06Rik (RIKEN cDNA 1300014I06 gene): 2.01
  probe 1429700_at response, 3110040M04Rik (RIKEN cDNA 3110040M04 gene): 2.47
  probe 1429844_at response, 2310043J07Rik (RIKEN cDNA 2310043J07 gene): 0.53
  probe 1430010_at response, Ncapd2 (non-SMC condensin I complex, subunit D2): 0.49
  probe 1430567_at response, Spink5 (serine peptidase inhibitor, Kazal type 5): 0.53
